According to paper PMC12024912, “Druggability Studies of Benzene Sulfonamide Substituted Diarylamide (E3) as a Novel Diuretic” (Biomedicines, 2025):

Columns and labels:
[1] = design: method as in PMID 35458649; conditions: 25a, comparison value; cited from earlier work
UT-B [2] = target: T1, UT-B (Rattus norvegicus, UniProt P97689); assay: Erythrocyte lysis assay for UT-B inhibition, rat erythrocytes; type: cell-based; conditions: erythrocyte lysis model; rat; n = 3, means; read-out: IC50 (μM) Rat
T1 construct: endogenous in cells; host or cells: erythrocytes from male SD rats
T1 sequence (P97689 1-384): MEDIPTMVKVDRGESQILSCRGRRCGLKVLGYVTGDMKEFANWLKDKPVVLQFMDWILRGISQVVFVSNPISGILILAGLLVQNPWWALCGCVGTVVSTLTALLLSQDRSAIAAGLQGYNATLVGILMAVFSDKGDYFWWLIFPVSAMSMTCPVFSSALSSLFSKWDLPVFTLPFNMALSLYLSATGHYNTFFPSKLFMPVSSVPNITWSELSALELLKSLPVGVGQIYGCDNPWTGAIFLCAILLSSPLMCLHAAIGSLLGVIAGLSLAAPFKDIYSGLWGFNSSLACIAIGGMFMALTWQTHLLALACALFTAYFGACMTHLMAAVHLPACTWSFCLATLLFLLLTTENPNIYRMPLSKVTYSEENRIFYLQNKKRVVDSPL
Method: (§1) The erythrocyte lysis assay was modified from a method described previously. Erythrocytes obtained from veins were diluted to a hematocrit value of 2% in hyperosmolar PBS containing 1.25 mol/L urea and 5 mmol/L glucose and incubated at r.t. for 2 h. Then, 99 μL erythrocyte suspension from a reservoir was added to each well of a 96-well round-bottom microplate, then 1 μL of the testing compound (500, 125, 31.25, 7.81, 1.95, 0.488, 0.122, 0.031, 0.0076 μmol/L dissolved in DMSO) was added to erythrocyte suspension and shook it up with microoscillator for 1 min. Following 5 min incubation, 20 μL erythrocyte suspension was transferred into 96-well black microplates preloaded with 180 μL isotonic PBS (10 mM, urea-free). Erythrocyte lysis was monitored at 710 nm optical density (OD710) for 6 min, with lysis rates calculated using control values from the same plate as Equation (1):Lysis (%) = 100 × (Aneg − Atest)/(Aneg − Apos)(1) where Atest is the absorbance value from the test well, Aneg is from a negative no-lysis control well, and Apos is from a positive full-lysis control.

UT-B [3] = target: T2, UT-B (Mus musculus, UniProt Q8VHL0); assay: Erythrocyte lysis assay for UT-B inhibition, mouse erythrocytes; type: cell-based; conditions: erythrocyte lysis model; mouse; n = 3, means; read-out: IC50 (μM) Mouse
T2 construct: endogenous in cells; host or cells: erythrocytes from wild-type C57BL/6 mice
T2 sequence (Q8VHL0 1-384): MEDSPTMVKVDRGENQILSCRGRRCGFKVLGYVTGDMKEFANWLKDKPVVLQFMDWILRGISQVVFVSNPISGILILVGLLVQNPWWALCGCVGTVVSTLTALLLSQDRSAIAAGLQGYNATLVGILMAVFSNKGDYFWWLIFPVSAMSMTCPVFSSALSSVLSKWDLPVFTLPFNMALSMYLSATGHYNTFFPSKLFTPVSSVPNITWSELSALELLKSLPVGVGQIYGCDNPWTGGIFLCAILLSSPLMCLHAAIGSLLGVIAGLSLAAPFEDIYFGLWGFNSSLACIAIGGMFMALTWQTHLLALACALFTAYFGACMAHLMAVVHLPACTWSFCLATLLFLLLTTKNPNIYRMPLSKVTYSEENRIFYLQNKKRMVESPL
Method: as §1

mice = assay: Mouse sperm malformation assay; conditions: mice; day 35; E3 2000 mg/kg/day oral for 5 days; CP 50 mg/kg i.p.; vs control
Method: Male mice were randomly divided into three groups: control group (0.5% CMC-Na), E3 2000 mg/kg group, and positive group (50 mg/kg cyclophosphamide (CP), administered via intraperitoneal injection). E3 and the control group were administered once daily by intragastric gavage. All mice received treatment for 5 consecutive days. After the initial dosing period, […], the mice were euthanized, and evaluation of sperm parameters was performed as follows:
Caudal epididymides were dissected into fragments in physiological saline and incubated (37 °C, 5% CO2, 10 min). Spermatozoa were isolated through nylon mesh filtration. Semen parameters were quantified using computer-assisted semen analysis (CASA). Eosin-stained smears (20 μL sperm suspension) were analyzed to examine sperm morphology. […] Sperm shape abnormalities, such as banana, headless, without a hook, amorphous, double-tailed, and fat head, were identified and counted. In addition, the testis was reserved for morphological analysis. The spermatogenesis was graded from 1 to 10 using the Johnsen score.

[4] = system: rat hyponatremia model caused by SIADH; assay: Rat hyponatremia model caused by SIADH (dDAVP); type: in vivo
Method: The protocol for dDAVP-induced hyponatremia was adapted from a previous study, with tolvaptan chosen as the positive control. Preliminary experiments determined the dose of dDAVP (0.25 ng/h). Under isoflurane anesthesia, a 0.5 μg/mL dDAVP solution was injected subcutaneously using an osmotic minipump (ALZET 2002, Cupertino, CA, USA; 200 μL, low rate of 0.5 μL/h for […]). Rats were housed individually in metabolic cages to collect urine. Before using the pump, they were given 62.5 mL/d 1.0 kcal/mL of liquid food. After pump implantation, the rats received 40 mL of 2.1 kcal/mL of liquid feed daily. The rats were divided into five groups: control group (sham operation), model group (0.5% poloxamer, solvent), 4 mg/kg tolvaptan group, 4 mg/kg E3 group, and 20 mg/kg E3 group. E3 was administered orally every 8 h, while tolvaptan was given intragastrically once daily. At the end of the experiment, the rats were sacrificed.

[5] = SIADH rats, E3 4 or 20 mg/kg every 8 h, tolvaptan 4 mg/kg once daily, vs model rats

| Compound | IC50 (UT-B [2]) | IC50 (UT-B [3]) | also measured |
| --- | --- | --- | --- |
| CC(=O)Nc1ccc(NC(=O)c2ccc(C(C)=O)o2)cc1 [Compound 25a, N-(4-acetamidophenyl)-5-acetylfuran-2-carboxamide] |  |  | half-life [1]: 2.86 h; tmax time [1]: 0.25 h |
| CCN1CCN(c2ccc(NC(=O)c3ccc(C(C)=O)o3)cc2)CC1 [Compound E1] | 0.32 µM | 0.86 µM |  |
| CC(=O)c1ccc(C(=O)Nc2ccc(C(=O)NCCN(C)C)cc2)o1 [Compound E2] | 0.4 µM | 2.41 µM |  |
| CC(=O)c1ccc(C(=O)Nc2ccccc2NS(=O)(=O)c2ccccc2)o1 [Compound E4] | 6.46 µM | > 10 µM |  |
| CC(=O)c1ccc(C(=O)Nc2ccc(NS(=O)(=O)c3ccccc3)cc2)o1 [Compound E5] | 0.06 µM | 0.23 µM |  |
| CC(=O)c1ccc(C(=O)Nc2ccc(NS(=O)(=O)c3ccccc3)c(O)c2)o1 [Compound E6] | 0.05 µM | 0.18 µM |  |
| O=P1(N(CCCl)CCCl)NCCCO1 (stereo not drawn) [cyclophosphamide (CP), cyclophosphamide, reference compound] |  |  | testicular and epididymal indices, sperm motility, abnormal morphology, sperm counts, Johnsen score (mice): caused abnormalities |
| Cc1ccccc1C(=O)Nc1ccc(C(=O)N2CCCC(O)c3cc(Cl)ccc32)c(C)c1 (stereo not drawn) [tolvaptan, reference compound] |  |  | hyponatremia in SIADH rats ([4]; E3 4 or 20 mg/kg orally every 8 h, tolvaptan 4 mg/kg once daily, vs model): significantly alleviated; serum osmolality [4, 5]: significantly increased; serum sodium concentration [4, 5]: significantly increased; blood urea levels ([4]; SIADH rats, between experimental groups before and after treatment): no significant difference; H&E staining of kidney and liver ([4]; SIADH rats, except dilatation of collecting ducts): normal tissue structures |

The next lines start with results.

| IC50 (UT-B [2]) | IC50 (UT-B [3]) | Compound | also measured |
| --- | --- | --- | --- |
| 0.09 µM | 0.23 µM | CC(=O)c1ccc(C(=O)Nc2ccc(S(=O)(=O)Nc3ccccc3)cc2)o1 [Compound E7] |  |
| 0.77 µM | 2.55 µM | CC(=O)c1ccc(C(=O)Nc2ccc(S(=O)(=O)Nc3ccc(OCCN4CCOCC4)cc3)cc2)o1 [Compound E8] |  |
| 1.75 µM | 4.07 µM | CC(=O)c1ccc(C(=O)Nc2ccc(S(=O)(=O)Nc3ccc(OCCCN4CCOCC4)cc3)cc2)o1 [Compound E9] |  |
